How the values were obtained:
dephosphorylated PDK1 = dephosphorylated PDK1 (Homo sapiens (Human), UniProt O15530); assay: PDK1 kinase assay (coupled PDK1/AKT/FAM-crosstide, IMAP); format: biochemical; details: 25 nM un-phosphorylated PDK1, 24 μM ATP; read-out: Inhibition of dephospo-PDK1 in vitro IC50
Summary of the method: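 The FAM-crosstide phosphorylation readout was IMAP polarization (ex 485/em 530 nm, 2 h binding), with 4-parameter fits of ΔmP data. The reaction ran 30 min at 25 °C with 24 μM ATP, and contained 25 nM phosphatase-treated PDK1 (aa 51–360) plus 30 nM unphosphorylated AKT2-PIFtide and 100 nM substrate. Buffer was 10 mM Tris pH 7.2, 10 mM MgCl2, 0.01% Triton X-100 and 1 mM DTT.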

full-length PDK1 = full-length PDK1 (Homo sapiens (Human), UniProt O15530); assay: PDK phosphorylation of AKT and PKC-PIFtide in presence of PIP3 vesicles; format: biochemical; details: substrates PKC-PIFtide vs AKT2
Chain of full-length PDK1 (O15530 whole entry): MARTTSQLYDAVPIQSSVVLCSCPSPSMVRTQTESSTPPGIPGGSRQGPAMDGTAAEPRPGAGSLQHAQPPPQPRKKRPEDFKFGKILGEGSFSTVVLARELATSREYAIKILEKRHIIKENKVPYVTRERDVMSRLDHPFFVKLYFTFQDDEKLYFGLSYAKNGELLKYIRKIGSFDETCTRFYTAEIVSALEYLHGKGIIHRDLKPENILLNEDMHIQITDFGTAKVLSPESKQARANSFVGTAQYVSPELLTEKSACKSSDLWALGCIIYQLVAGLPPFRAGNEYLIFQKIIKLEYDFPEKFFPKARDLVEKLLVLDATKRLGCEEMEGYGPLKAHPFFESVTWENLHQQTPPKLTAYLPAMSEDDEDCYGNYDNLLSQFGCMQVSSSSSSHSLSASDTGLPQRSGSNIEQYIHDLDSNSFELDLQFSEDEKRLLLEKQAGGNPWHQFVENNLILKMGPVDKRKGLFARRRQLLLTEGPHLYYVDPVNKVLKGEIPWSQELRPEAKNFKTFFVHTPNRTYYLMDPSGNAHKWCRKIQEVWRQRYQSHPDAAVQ
Protocol: PDK phosphorylation of two different substrates, AKT and PKC-PIFtide, was measured in presence of pre-formed phophoinositol lipid PIP3 vesicles. 5 nM full-length PDK1 and was incubated with 100 nM substrate (unphosphorylated, full-length AKT2 or PKC-PIFtide, Invitrogen cat#P2925) in presence of test compound or DMSO at room temperature for 3 hours. Final buffer conditions were 10 mM Tris pH 7.5 buffer containing 10 mM MgCl2, 0.002% Triton X-100, 1 mM DTT, 0.2 mg/ml BSA, 10 uM PtdIns(3,4,5)P3 (Matreya, Inc), 100 uM DOPC:DOPS (Avanti Polar Lipids), and 0.5 uCi γ^33P-ATP (3000 Ci/mmol, Perkin-Elmer.)
Kinase reactions were stopped with addition of 50 uM non-labelled ATP and 5 mM EDTA, then acidified with 0.5% final concentration phosphoric acid. Labeled proteins were collected in Whatman P81 filter plates and washed with three 150 ul volumes of 0.5% phosphoric acid.
Lipid vesicles were pre-formed as follows. 15 mg (3 ampules) DOPC:DOPS was resuspended in 898 ul 10 mM HEPES pH 7.4. 1 mg PIP3 was resuspended in 1000 ul 10 mM HEPES pH 7.4. 964 ul of PIP3 was mixed with 800 ul DOPC:DOPS and diluted with 18.2 ml 10 mM HEPES pH 7.4 and mixed by vortexing. The lipid mixture was subjected to 5 cycles of freeze/thaw using liquid nitrogen and a 50° C. water bath. Aliquot of lipids were flash frozen and stored at −20° C.

phosphorylated PDK1 = phosphorylated PDK1 (Homo sapiens (Human), UniProt O15530); assay: PDK1 kinase assay (coupled PDK1/AKT/FAM-crosstide, IMAP); format: biochemical; details: 0.5 nM phosphorylated PDK1, 24 μM ATP; read-out: Inhibition of phospo-PDK1 in vitro IC50
Chain of phosphorylated PDK1 (O15530 51-360): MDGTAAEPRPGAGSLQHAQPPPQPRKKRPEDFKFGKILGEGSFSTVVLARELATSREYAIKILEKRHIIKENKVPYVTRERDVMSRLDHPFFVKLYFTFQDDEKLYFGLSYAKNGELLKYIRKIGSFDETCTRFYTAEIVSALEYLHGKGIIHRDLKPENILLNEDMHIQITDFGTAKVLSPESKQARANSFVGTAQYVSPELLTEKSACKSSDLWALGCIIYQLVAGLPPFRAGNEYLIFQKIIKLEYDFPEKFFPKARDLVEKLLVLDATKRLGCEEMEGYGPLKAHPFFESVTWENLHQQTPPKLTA

phospho-akt (Thr308) = phospho-akt (Thr308) MSD ELISA in PC-3 cells; format: cell-based; details: Homo sapiens, PC-3, 2 h, PC-3 cells, 2 hours, no serum; read-out: Inhibition of P308 Akt in cells using MSD EC50
Summary of the method: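 Read-out is MSD electrochemiluminescence after lysate capture overnight at 4 degrees and 1 hr RT detection-antibody step. Before lysis, overnight-plated PC-3 cells received three-fold serial dilutions of inhibitor in serum-free medium, with DMSO-only high controls.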

Chain of dephosphorylated PDK1 (O15530 51-360): as above

Structure (SMILES): O=C(NCc1nc(-c2c[nH]c3ncccc23)cs1)c1cccn(Cc2ccc(F)c(F)c2)c1=O [Cpd 112]
- IC50 (dephosphorylated PDK1): < 500 nM
- Ratio of PIP3 IC50 with PKCtide to PIP3 IC50 with AKT (full-length PDK1): 71.9
- IC50 (phosphorylated PDK1): < 500 nM
- EC50 (phospho-akt (Thr308)): < 1000 nM

— patent publication US9873693B2 (Sunesis Pharmaceuticals, Inc., priority 2006, dated 2018)
